pIC50: −log10 of the molar value. Where a name gives a salt, the structure may show the parent alone.
Legend:
[1] = biological target: T1, human V2 receptor (Homo sapiens, UniProt P30518); assay: Cellular in vitro assay for determining vasopressin receptor activity (V2, CRE-luciferase); type: cell-based; details: CHO cell line transfected with the human V2 receptor; [Arg8]-vasopressin at EC50 concentration; read-out: IC50 hV2
T1 construct: expressed in transfected cells; host or cells: CHO K1 (ATCC) expressing firefly luciferase under a CRE-responsive promoter
T1 sequence (P30518 whole entry): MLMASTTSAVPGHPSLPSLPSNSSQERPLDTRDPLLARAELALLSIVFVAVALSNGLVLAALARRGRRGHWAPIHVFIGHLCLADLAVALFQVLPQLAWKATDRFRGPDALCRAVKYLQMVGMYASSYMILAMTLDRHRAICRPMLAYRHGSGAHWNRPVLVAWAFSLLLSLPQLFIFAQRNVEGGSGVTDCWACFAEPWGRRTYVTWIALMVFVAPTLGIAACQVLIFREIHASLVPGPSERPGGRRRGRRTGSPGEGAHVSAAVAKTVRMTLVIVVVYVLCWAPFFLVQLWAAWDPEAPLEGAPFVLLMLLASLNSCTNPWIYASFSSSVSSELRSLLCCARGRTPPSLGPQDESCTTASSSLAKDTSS
Description: (§1) B-1. Cellular In Vitro Assay for Determining Vasopressin Receptor Activity
(§2) The identification of agonists and antagonists of the V1a and V2 vasopressin receptors from humans, rats and dogs as well as the quantification of the activity of the compounds of the invention is carried out using recombinant cell lines. These cell lines originally derive from a hamster's ovary epithelial cell (Chinese Hamster Ovary, CHO K1, ATCC: American Type Culture Collection, Manassas, Va. 20108, USA). The test cell lines constitutively express the human, rat or dog V1a or V2 receptors. In case of the Gαq-coupled V1a receptors, cells are also stably transfected with a modified form of the calcium-sensitive photoproteins aequorin (human and rat V1a) or obelin (dog V1a), which, after reconstitution with the cofactor coelenterazine, emit light when there are increases in free calcium concentrations [Rizzuto R, Simpson A W, Brini M, Pozzan T, Nature 358, 325-327 (1992); Illarionov B A, Bondar V S, Illarionova V A, Vysotski E S, Gene 153 (2), 273-274 (1995)]. The resulting vasopressin receptor cells react to stimulation of the recombinantly expressed V1a receptors by intracellular release of calcium ions, which can be quantified by the resulting photoprotein luminescence. The Gs-coupled V2 receptors are stably transfected into cell lines expressing the gene for firefly luciferase under control of a CRE-responsible promoter. Activation of V2 receptors induces the activation of the CRE-responsive promoter via cAMP increase, thereby inducing the expression of firefly luciferase. The light emitted by photoproteins of V1a cell lines as well as the light emitted by firefly luciferase of V2 cell lines corresponds to the activation or inhibition of the respective vasopressin receptor. The bioluminescence of the cell lines is detected using a suitable luminometer [Milligan G, Marshall F, Rees S, Trends in Pharmacological Sciences 17, 235-237 (1996)].
Vasopressin V2 receptor cell lines:
On the day before the assay, the cells are plated out in culture medium (DMEM/F12, 2% FCS, 2 mM glutamine, 10 mM HEPES) in 384-well microtiter plates and kept in a cell incubator (96% humidity, 5% v/v CO2, 37° C.). On the day of the assay, test compounds in various concentrations and the agonist [Arg^8]-vasopressin at EC50 concentration are added together to the wells, and plates are incubated for 3 hours in a cell incubator. Upon addition of the cell lysis reagent Triton™ and the substrate luciferin, luminescence of firefly luciferase is measured in a luminometer.
(§3) Table 1A below lists individual IC50 values for the compounds of the invention (including racemic mixtures as well as separated enantiomers) that were obtained from cell lines transfected with the human V1a or V2 receptor: […]

[2] = biological target: T2, human V1a receptor (Homo sapiens, UniProt P37288); assay: Cellular in vitro assay for determining vasopressin receptor activity (V1a, aequorin luminescence); type: cell-based; details: for pIC50: CHO cell line transfected with the human V1a receptor, [Arg8]-vasopressin at EC50 concentration, read-out: IC50 hV1a; for ratio IC50 hV2/hV1a: selectivity ratio of IC50 hV2 to IC50 hV1a
T2 construct: expressed in transfected cells; host or cells: CHO K1 (ATCC), also stably transfected with a modified aequorin
T2 sequence (P37288 whole entry): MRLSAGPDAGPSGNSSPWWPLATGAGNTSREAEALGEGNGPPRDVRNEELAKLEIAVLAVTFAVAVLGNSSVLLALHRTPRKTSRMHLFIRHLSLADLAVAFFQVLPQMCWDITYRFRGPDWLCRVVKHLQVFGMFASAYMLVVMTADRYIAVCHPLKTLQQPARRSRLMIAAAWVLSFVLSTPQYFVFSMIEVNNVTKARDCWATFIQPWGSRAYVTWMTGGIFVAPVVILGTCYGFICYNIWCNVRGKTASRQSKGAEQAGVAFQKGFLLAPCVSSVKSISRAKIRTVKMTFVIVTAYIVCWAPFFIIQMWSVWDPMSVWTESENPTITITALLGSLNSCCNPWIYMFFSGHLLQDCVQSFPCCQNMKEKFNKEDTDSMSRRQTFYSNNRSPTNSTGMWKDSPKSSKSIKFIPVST
Description: as §1, §2
Vasopressin V1a receptor cell lines:
On the day before the assay, the cells are plated out in culture medium (DMEM/F12, 2% FCS, 2 mM glutamine, 10 mM HEPES, 5 μg/ml coelenterazine) in 384-well microtiter plates and kept in a cell incubator (96% humidity, 5% v/v CO2, 37° C.). On the day of the assay, test compounds in various concentrations are placed for 10 minutes in the wells of the microtiter plate before the agonist [Arg^8]-vasopressin at EC50 concentration is added. The resulting light signal is measured immediately in a luminometer.
as §3

SMILES | pIC50 [1] | pIC50 [2] | ratio IC50 hV2/hV1a [2]
O=C(NC(CO)c1nc(Cn2nc(-c3ccc(Cl)cc3)n(C[C@H](O)C(F)(F)F)c2=O)nn1-c1ccccc1Cl)C(F)(F)F (mixture of isomers) [Example 95, N-{1-[1-(2-Chlorophenyl)-3-({3-(4-chlorophenyl)-5-oxo-4-[(2S)-3,3,3-trifluoro-2-hydroxypropyl]-4,5-dihydro-1H-1,2,4-triazol-1-yl}methyl)-1H-1,2,4-triazol-5-yl]-2-hydroxyethyl}-2,2,2-trifluoroacetamide] | 7.74 | 8.68 | 8.6
O=C1NC(c2nc(Cn3nc(-c4ccc(Cl)cc4)n(C[C@H](O)C(F)(F)F)c3=O)nn2-c2ccccc2Cl)CO1 (mixture of isomers) [Example 98, 5-(4-Chlorophenyl)-2-({1-(2-chlorophenyl)-5-[2-oxo-1,3-oxazolidin-4-yl]-1H-1,2,4-triazol-3-yl}methyl)-4-[(2S)-3,3,3-trifluoro-2-hydroxypropyl]-2,4-dihydro-3H-1,2,4-triazol-3-one] | 8.22 | 9.21 | 9.8
CN1C(=O)CCC1c1nc(Cn2nc(-c3ccc(Cl)cc3)n(C[C@H](O)C(F)(F)F)c2=O)nn1-c1ncccc1Cl (mixture of isomers) [Example 103, 5-(4-Chlorophenyl)-2-({1-(3-chloropyridin-2-yl)-5-[(2R)-1-methyl-5-oxopyrrolidin-2-yl]-1H-1,2,4-triazol-3-yl}methyl)-4-[(2S)-3,3,3-trifluoro-2-hydroxypropyl]-2,4-dihydro-3H-1,2,4-triazol-3-one] | 7.58 | 8.84 | 18.3
CC(N)c1nc(Cn2nc(-c3ccc(Cl)cc3)n(C[C@H](O)C(F)(F)F)c2=O)nn1-c1ncccc1Cl (mixture of isomers) [Example 106, 2-({5-[1-Aminoethyl]-1-(3-chloropyridin-2-yl)-1H-1,2,4-triazol-3-yl}methyl)-5-(4-chlorophenyl)-4-[(2S)-3,3,3-trifluoro-2-hydroxypropyl]-2,4-dihydro-3H-1,2,4-triazol-3-one] | 7.73 | 8.78 | 11.2
CC(=O)NC(C)c1nc(Cn2nc(-c3ccc(Cl)cc3)n(C[C@H](O)C(F)(F)F)c2=O)nn1-c1ncccc1Cl (mixture of isomers) [Example 107, N-{1-[3-({3-(4-Chlorophenyl)-5-oxo-4-[(2S)-3,3,3-trifluoro-2-hydroxypropyl]-4,5-dihydro-1H-1,2,4-triazol-1-yl}methyl)-1-(3-chloropyridin-2-yl)-1H-1,2,4-triazol-5-yl]ethyl}acetamide] | 6.62 | 7.87 | 17.8
O=C1NC(c2nc(Cn3nc(-c4ccc(Cl)cc4)n(C[C@H](O)C(F)(F)F)c3=O)nn2-c2ncccc2Cl)CO1 (mixture of isomers) [Example 112, 5-(4-Chlorophenyl)-2-({1-(3-chloropyridin-2-yl)-5-[2-oxo-1,3-oxazolidin-4-yl]-1H-1,2,4-triazol-3-yl}methyl)-4-[(2S)-3,3,3-trifluoro-2-hydroxypropyl]-2,4-dihydro-3H-1,2,4-triazol-3-one] | 6.68 | 8.08 | 25.0
O=C1NC(c2nc(Cn3nc(-c4ccc(Cl)cc4)n(C[C@H](O)C(F)(F)F)c3=O)nn2-c2ncccc2OC(F)(F)F)CO1 (mixture of isomers) [Example 117, 5-(4-Chlorophenyl)-2-({5-[2-oxo-1,3-oxazolidin-4-yl]-1-[3-(trifluoromethoxy)pyridin-2-yl]-1H-1,2,4-triazol-3-yl}methyl)-4-[(2S)-3,3,3-trifluoro-2-hydroxypropyl]-2,4-dihydro-3H-1,2,4-triazol-3-one] | 6.33 | 7.67 | 21.9
CC(=O)NC(CO)c1nc(Cn2nc(-c3ccc(Cl)cc3)n(C[C@H](O)C(F)(F)F)c2=O)nn1-c1ncccc1OC(F)(F)F (mixture of isomers) [Example 120, N-[1-{3-({3-(4-Chlorophenyl)-5-oxo-4-[(2S)-3,3,3-trifluoro-2-hydroxypropyl]-4,5-dihydro-1H-1,2,4-triazol-1-yl}methyl)-1-[3-(trifluoromethoxy)pyridin-2-yl]-1H-1,2,4-triazol-5-yl}-2-hydroxyethyl]acetamide] | 6.39 | 7.90 | 32.8
CNc1ccncc1-n1nc(Cn2nc(-c3ccc(Cl)cc3)n(C[C@H](O)C(F)(F)F)c2=O)nc1C(C)N (mixture of isomers) [Example 124, 2-({5-[1-Aminoethyl]-1-[4-(methylamino)pyridin-3-yl]-1H-1,2,4-triazol-3-yl}methyl)-5-(4-chlorophenyl)-4-[(2S)-3,3,3-trifluoro-2-hydroxypropyl]-2,4-dihydro-3H-1,2,4-triazol-3-one hydrochloride] | 7.13 | 7.47 | 2.2
CNc1ccncc1-n1nc(Cn2nc(-c3ccc(Cl)cc3)n(C[C@H](O)C(F)(F)F)c2=O)nc1C(C)NC(C)=O (mixture of isomers) [Example 125, N-[1-{3-({3-(4-Chlorophenyl)-5-oxo-4-[(2S)-3,3,3-trifluoro-2-hydroxypropyl]-4,5-dihydro-1H-1,2,4-triazol-1-yl}methyl)-1-[4-(methylamino)pyridin-3-yl]-1H-1,2,4-triazol-5-yl}ethyl]acetamide hydrochloride] | 6.23 | 7.19 | 9.3
CC(N)c1nc(Cn2nc(-c3ccc(Cl)cc3)n(C[C@H](O)C(F)(F)F)c2=O)nn1-c1ncccn1 (mixture of isomers) [Example 128, 2-({5-[1-Aminoethyl]-1-(pyrimidin-2-yl)-1H-1,2,4-triazol-3-yl}methyl)-5-(4-chlorophenyl)-4-[(2S)-3,3,3-trifluoro-2-hydroxypropyl]-2,4-dihydro-3H-1,2,4-triazol-3-one hydrochloride] | 5.67 | 7.02 | 22.8
CC(=O)NC(C)c1nc(Cn2nc(-c3ccc(Cl)cc3)n(C[C@H](O)C(F)(F)F)c2=O)nn1-c1ncccn1 (mixture of isomers) [Example 129, N-{1-[3-({3-(4-Chlorophenyl)-5-oxo-4-[(2S)-3,3,3-trifluoro-2-hydroxypropyl]-4,5-dihydro-1H-1,2,4-triazol-1-yl}methyl)-1-(pyrimidin-2-yl)-1H-1,2,4-triazol-5-yl]ethyl}acetamide] | 5.81 | 6.72 | 8.2
CN1C(=O)CCC1c1nc(Cn2nc(-c3ccc(Cl)cc3)n(C[C@H](O)C(F)(F)F)c2=O)nn1CCC(F)(F)F (mixture of isomers) [Example 130, 5-(4-Chlorophenyl)-2-({5-[1-methyl-5-oxopyrrolidin-2-yl]-1-(3,3,3-trifluoropropyl)-1H-1,2,4-triazol-3-yl}methyl)-4-[(2S)-3,3,3-trifluoro-2-hydroxypropyl]-2,4-dihydro-3H-1,2,4-triazol-3-one] | 5.57 | 7.68 | 127.9
COc1ccccc1-n1nc(Cn2nc(-c3ccc(Cl)cc3)n(C[C@H](O)C(F)(F)F)c2=O)nc1C(C)OC(N)=O (single isomer, unassigned) [Example 39] | 8.75 | 8.96 | 1.6
COc1ccccc1-n1nc(Cn2nc(-c3ccc(Cl)cc3)n(C[C@H](OC(N)=O)C(F)(F)F)c2=O)nc1C(C)OC(N)=O (single isomer, unassigned) [Example 40] | 8.20 | 8.23 | 1.1
COc1ccccc1-n1nc(Cn2nc(-c3ccc(Cl)cc3)n(C[C@H](O)C(F)(F)F)c2=O)nc1C(C)OC(N)=O (single isomer, unassigned) [Example 41] | 8.01 | 8.70 | 4.8
